Several values for one entry are separate records, joined by “and”; a condition that tells them apart may be missing. Equal values may be shown once. Inconclusive results and toxic doses are left out. Cut-off read from the data, not from the text of the source: active = T/C of 150% or more; inactive = T/C below 125%.
Test system: L1210 leukemia ip in BDF1 mice, survival T/C
Test: NCI In Vivo Anticancer Drug Screen. Data for tumor model L1210 Leukemia (intraperitoneal) in B6D2F1 (BDF1) mice
Conditions: endpoint: mean survival time, higher = longer survival
How it was run: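 Tumor cells were implanted, animals were treated, and survival was followed. The result divides the treated measurement by the vehicle-control measurement.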

[1] = dose: 100.0 mg/kg/injection, schedule: Q04DX002 (ip), vehicle: saline with Tween-80

Measured: T/C

C[C@]12CCC(=O)C=C1CC[C@@H]1[C@@H]2[C@@H](O)C[C@@]2(C)[C@H]1CC[C@]2(O)C(=O)CO
inactive: dose: 12.0 mg/kg/injection, schedule: Q01DX015 (sc), vehicle: steriod suspending solution 100 % of control | dose: 25.0 mg/kg/injection, schedule: Q01DX015 (sc), vehicle: steriod suspending solution 100 % of control | dose: 50.0 mg/kg/injection, schedule: Q01DX015 (sc), vehicle: steriod suspending solution 102 % of control | dose: 100.0 mg/kg/injection, schedule: Q01DX001 (sc), vehicle: steriod suspending solution 102 % of control | dose: 100.0 mg/kg/injection, schedule: Q01DX Z (sc), vehicle: steriod suspending solution 101 % of control | dose: 200.0 mg/kg/injection, schedule: Q01DX001 (sc), vehicle: steriod suspending solution 108 % of control | dose: 200.0 mg/kg/injection, schedule: Q01DX Z (sc), vehicle: steriod suspending solution 102 % of control | dose: 400.0 mg/kg/injection, schedule: Q01DX001 (sc), vehicle: steriod suspending solution 108 % of control | dose: 400.0 mg/kg/injection, schedule: Q01DX Z (sc), vehicle: steriod suspending solution 102 % of control | dose: 800.0 mg/kg/injection, schedule: Q01DX Z (sc), vehicle: steriod suspending solution 94 % of control | dose: 1000.0 mg/kg/injection, schedule: Q01DX015 (sc), vehicle: steriod suspending solution 104 % of control

Cc1c2cnccc2c(C)c2c1c1ccccc1n2CCOC(=O)c1ccccc1
inactive: dose: 50.0 mg/kg/injection, schedule: Q01DX009 (ip), vehicle: saline with Tween-80 88 % of control | dose: 100.0 mg/kg/injection, schedule: Q01DX009 (ip), vehicle: saline with Tween-80 98 % of control and 88 % of control | dose: 100.0 mg/kg/injection, schedule: Q04DX003 (ip), vehicle: saline with Tween-80 100 % of control | dose: 200.0 mg/kg/injection, schedule: Q01DX009 (ip), vehicle: saline with Tween-80 93 % of control | dose: 200.0 mg/kg/injection, schedule: Q04DX003 (ip), vehicle: saline with Tween-80 97 % of control | dose: 400.0 mg/kg/injection, schedule: Q01DX009 (ip), vehicle: saline with Tween-80 95 % of control | dose: 400.0 mg/kg/injection, schedule: Q04DX003 (ip), vehicle: saline with Tween-80 91 % of control

CCCCCCCCCCCCC(CCC)(OO)C(=O)OC (stereo unspecified)
inactive: dose: 25.0 mg/kg/injection, schedule: Q04DX002 (ip), vehicle: saline with Tween-80 98 % of control | dose: 50.0 mg/kg/injection, schedule: Q04DX002 (ip), vehicle: saline with Tween-80 87 % of control | [1] 98 % of control

Cc1cccc(C2NC(=O)N3C(c4cccc(C)c4)NC(=O)N23)c1 (stereo unspecified)
inactive: dose: 100.0 mg/kg/injection, schedule: Q01DX009 (ip), vehicle: gum acacia 89 % of control | dose: 100.0 mg/kg/injection, schedule: Q04DX003 (ip), vehicle: gum acacia 88 % of control | dose: 200.0 mg/kg/injection, schedule: Q01DX009 (ip), vehicle: gum acacia 88 % of control | dose: 200.0 mg/kg/injection, schedule: Q04DX003 (ip), vehicle: gum acacia 93 % of control | dose: 400.0 mg/kg/injection, schedule: Q04DX003 (ip), vehicle: gum acacia 90 % of control

CCOC(=O)c1cc(Cl)c2ccccc2n1
inactive: dose: 100.0 mg/kg/injection, schedule: Q01DX001 (ip), vehicle: saline 96 % of control | dose: 200.0 mg/kg/injection, schedule: Q01DX001 (ip), vehicle: saline 98 % of control | dose: 400.0 mg/kg/injection, schedule: Q01DX001 (ip), vehicle: saline 96 % of control

NC(=O)C1(N2CCCC2)CCN(Cc2ccccc2)CC1
inactive: dose: 50.0 mg/kg/injection, schedule: Q01DX009 (ip), vehicle: Klucel (hydroxypropylcellulose) (HPC) 94 % of control | dose: 100.0 mg/kg/injection, schedule: Q01DX009 (ip), vehicle: Klucel (hydroxypropylcellulose) (HPC) 97 % of control | dose: 100.0 mg/kg/injection, schedule: Q04DX003 (ip), vehicle: Klucel (hydroxypropylcellulose) (HPC) 96 % of control | dose: 200.0 mg/kg/injection, schedule: Q01DX009 (ip), vehicle: Klucel (hydroxypropylcellulose) (HPC) 90 % of control | dose: 200.0 mg/kg/injection, schedule: Q04DX003 (ip), vehicle: Klucel (hydroxypropylcellulose) (HPC) 93 % of control

S=C(Nc1ccc(Cl)cc1)NC1CC2C=CC1C2 (stereo unspecified)
inactive: [1] 101 % of control | dose: 200.0 mg/kg/injection, schedule: Q04DX002 (ip), vehicle: saline with Tween-80 93 % of control

— PubChem BioAssay AID248 (DTP/NCI, 2004)
